In patent publication US9920042B2, “Compounds for use in the treatment of mycobacterial infections” (Universite de Droit et de la Sante de Lille 2, priority 2012, dated 2018):
Like-named read-outs stand apart in the source and are kept apart here.

Tests used:
EthR protein = EthR protein (Mycobacterium tuberculosis, UniProt P9WMC1); experiment: TSA test (Thermal Shift Assay), fluorescence with Sypro Orange; format: binding, M. tuberculosis; conditions: melting temperature shift of EthR with ligand vs protein alone
[1] = system: M. tuberculosis alone or macrophages infected by M. tuberculosis; experiment: Potentiation of ethionamide cell test (High Content Screening); format: cell-based; conditions: ligand concentration potentiating ten times the activity of ethionamide, ethionamide constant at 0.1 μg/mL (1/10th of its CMI99)

Sequence of EthR protein (P9WMC1 whole entry, looked up): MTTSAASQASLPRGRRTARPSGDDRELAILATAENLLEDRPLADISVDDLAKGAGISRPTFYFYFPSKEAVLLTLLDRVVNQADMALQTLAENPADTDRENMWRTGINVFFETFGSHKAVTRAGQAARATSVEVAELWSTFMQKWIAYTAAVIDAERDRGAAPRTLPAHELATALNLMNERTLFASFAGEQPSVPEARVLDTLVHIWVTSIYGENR

CCOC(=O)Cc1nc(-c2ccc(C(=O)NCCC(F)(F)F)cc2)cs1 [Compound 52]
ΔTm (EthR protein): 10.1 °C | EC50 ([1]; read-out: EC50): 190 nM

CC(C)(C)S(=O)(=O)Cc1nc(-c2ccc(C(=O)NCCC(F)(F)F)cc2)cs1 [Compound 50, 4-(2-(tert-butylsulfonylmethyl)thiazol-4-yl)-N-(3,3,3-trifluoropropyl)-benzamide]
ΔTm (EthR protein): 9.6 °C | EC50 ([1]; read-out: EC50): 41 nM

O=C(NCCC(F)(F)F)c1ccc(-n2cc(C3CC3)nn2)cc1 [Compound 95, 4-(4-cyclopropyl-1H-1,2,3-triazol-1-yl)-N-(3,3,3-trifluoropropyl)-benzamide]
ΔTm (EthR protein): 3.5 °C | EC50 ([1]; read-out: EC50): 1700 nM

CCOC(=O)c1nc(-c2ccc(C(=O)NCCC(F)(F)F)cc2)cs1 [Compound 54, 4-(4-(3,3,3-trifluoropropylcarbamoyl)phenyl)thiazole-2-ethyl carboxylate]
ΔTm (EthR protein): 9.6 °C | EC50 ([1]; read-out: EC50): > 2500 nM

CC(C)OC(=O)c1nc(-c2ccc(C(=O)NCCC(F)(F)F)cc2)cs1 [Compound 55, 4-(4-(3,3,3-trifluoropropylcarbamoyl)phenyl)thiazole-2-isopropyl carboxylate]
ΔTm (EthR protein): 8.2 °C | EC50 ([1]; read-out: EC50): 730 nM

Cc1nc(-c2ccc(C(=O)NCCC(F)(F)F)cc2)c(Cl)s1 [Compound 64, 4-(5-chloro-2-methylthiazol-4-yl)-N-(3,3,3-trifluoropropyl)benzamide]
ΔTm (EthR protein): 8.7 °C | EC50 ([1]; read-out: EC50): 350 nM

CC(C)(C)S(=O)(=O)Cc1nc(-c2ccc(S(=O)(=O)NCCC(F)(F)F)cc2)cs1 [Compound 39, 4-(2-(tert-butylsulfonylmethyl)thiazol-4-yl)-N-(3,3,3-trifluoropropyl)-benzene sulfonamide]
ΔTm (EthR protein): 7.3 °C | EC50 ([1]; read-out: EC50): 200 nM

CC(C)CCNS(=O)(=O)c1ccc(-c2csc(CC(N)=O)n2)cc1 [Compound 21, 2-(4-(4-(N-isopentylsulfamoyl)phenyl)thiazol-2-yl)acetamide]
ΔTm (EthR protein): 4.6 °C | EC50 ([1]; read-out: EC50): 5000 nM

Cc1nc(-c2ccc(S(=O)(=O)NCCCC(F)(F)F)cc2)cs1 [Compound 27, 4-(2-methylthiazol-4-yl)-N-(4,4,4-trifluorobutyl)benzene sulfonamide]
ΔTm (EthR protein): 6.6 °C | EC50 ([1]; read-out: EC50): > 2500 nM

O=C(NCCC(F)(F)F)c1ccc(-n2cc(CCO)nn2)cc1 [Compound 97, 4-(4-(2-hydroxyethyl)-1H-1,2,3-triazol-1-yl)-N-(3,3,3-trifluoropropyl)-benzamide]
ΔTm (EthR protein): 1.2 °C | EC50 ([1]; read-out: EC50): 2000 nM

CCOC(=O)Cc1nc(-c2ccc(S(=O)(=O)NCCC(F)(F)F)cc2)cs1 [Compound 34]
ΔTm (EthR protein): 0.15 °C | EC50 ([1]; read-out: EC50): 150 nM

Cc1noc(-c2ccc(C(=O)NCCC(F)(F)F)cc2)n1 [Compound 78, 4-(3-methyl-1,2,4-oxadiazol-5-yl)-N-(3,3,3-trifluoropropyl)benzamide]
EC50 ([1]; read-out: EC50): 210 nM

Cc1nc(-c2ccc(S(=O)(=O)NCC(F)(F)F)cc2)cs1 [Compound 26, 4-(2-methylthiazol-4-yl)-N-(2,2,2-trifluoroethyl)benzene sulfonamide]
ΔTm (EthR protein): 6.3 °C | EC50 ([1]; read-out: EC50): 7900 nM

CC(C)Cc1cn(-c2ccc(C(=O)NCCC(F)(F)F)cc2)nn1 [Compound 94, 4-(4-isobutyl-1H-1,2,3-triazol-1-yl)-N-(3,3,3-trifluoropropyl)benzamide]
ΔTm (EthR protein): 4.1 °C | EC50 ([1]; read-out: EC50): 1200 nM

Cc1nnc(-c2ccc(C(=O)NCCC(F)(F)F)cc2)o1 [Compound 80, 4-(5-methyl-1,3,4-oxadiazol-2-yl)-N-(3,3,3-trifluoropropyl)benzamide]
EC50 ([1]; read-out: EC50): 960 nM

CC(C)OC(=O)Cc1nc(-c2ccc(C(=O)NCCC(F)(F)F)cc2)cs1 [Compound 53, 2-(4-(4-(3,3,3-trifluoropropylcarbamoyl)phenyl)thiazol-2-yl(isopropyl acetate]
ΔTm (EthR protein): 13.2 °C | EC50 ([1]; read-out: EC50): 330 nM

CS(=O)(=O)NCC#Cc1ccc(S(=O)(=O)NCCC(F)(F)F)cc1 [Compound 108, 4-(3-(methylsulfonamido)prop-1-ynyl)-N-(3,3,3-trifluoropropyl)-benzene sulfonamide]
ΔTm (EthR protein): 1.4 °C | EC50 ([1]; read-out: EC50): > 10000 nM

O=C(NCCC(F)(F)F)c1ccc(-c2cscn2)cc1 [Compound 56, 4-(thiazol-4-yl)-N-(3,3,3-trifluoropropyl)benzamide]
ΔTm (EthR protein): 8.1 °C | EC50 ([1]; read-out: EC50): 360 nM

Cc1nc(-c2ccc(C(=O)NCCC(F)(F)F)nc2)cs1 [Compound 67, 5-(2-methylthiazol-4-yl)-N-(3,3,3-trifluoropropyl)picolinamide]
EC50 ([1]; read-out: EC50): 120 nM

O=C(NCCC(F)(F)F)c1ccc(C#CCNS(=O)(=O)c2ccccc2)cc1 [Compound 112, 4-(3-(phenylsulfonamido)prop-1-ynyl)-N-(3,3,3-trifluoropropyl)-benzamide]
ΔTm (EthR protein): 4.2 °C | EC50 ([1]; read-out: EC50): 230 nM

O=C(NCCC(F)(F)F)c1ccc(-c2csc(CNS(=O)(=O)c3ccccc3)n2)cc1 [Compound 104, 4-(2-(phenylsulfonamidomethyl)thiazol-4-yl)-N-(3,3,3-trifluoro-propyl)benzamide]
ΔTm (EthR protein): 1.2 °C | EC50 ([1]; read-out: EC50): 150 nM

CC(C)CCc1cn(-c2ccc(C(=O)NCCC(F)(F)F)cc2)nn1 [Compound 93, 4-(4-isopentyl-1H-1,2,3-triazol-1-yl)-N-(3,3,3-trifluoropropyl)benzamide]
ΔTm (EthR protein): 3.8 °C | EC50 ([1]; read-out: EC50): > 10000 nM

Cc1nc(-c2ccc(C(=O)NCCC(F)(F)F)cn2)cs1 [Compound 71, 6-(2-methylthiazol-4-yl)-N-(3,3,3-trifluoropropyl)nicotinamide]
EC50 ([1]; read-out: EC50): 1700 nM

Cc1nc(-c2ccc(C(=O)NCCC(F)(F)F)cc2)c(F)s1 [Compound 62, 4-(5-fluoro-2-mthylthiazol-4-yl)-N-(3,3,3-trifluoropropyl)benzamide]
EC50 ([1]; read-out: EC50): 55 nM

CCCS(=O)(=O)NCc1nc(-c2ccc(C(=O)NCCC(F)(F)F)cc2)cs1 [Compound 103, 4-(2-(propylsulfonamidomethyl)thiazol-4-yl)-N-(3,3,3-trifluoropropyl)benzamide]
ΔTm (EthR protein): 6.6 °C | EC50 ([1]; read-out: EC50): 320 nM

Cc1nc(-c2ccc(C(=O)NCCC(F)(F)F)cc2)no1 [Compound 75, 4-(5-methyl-1,2,4-oxadiazol-3-yl)-N-(3,3,3-trifluoropropyl)benzamide]
EC50 ([1]; read-out: EC50): 62 nM

O=C(NCCC(F)(F)F)c1ccc(-c2nsc(CO)n2)cc1 [Compound 90, 4-(5-(hydroxymethyl)-1,2,4-thiadiazol-3-yl)-N-(3,3,3-trifluoropropyl)-benzamide]
EC50 ([1]; read-out: EC50): 130 nM

Cc1nc(-c2ccc(S(=O)(=O)NCC(F)(F)C(F)(F)F)cc2)cs1 [Compound 25, 4-(2-methylthiazol-4-yl)-N-(2,2,3,3,3-pentafluoropropyl)benzene sulfonamide]
ΔTm (EthR protein): 8.6 °C | EC50 ([1]; read-out: EC50): > 20000 nM

O=S(=O)(NCC#Cc1ccc(S(=O)(=O)NCCC(F)(F)F)cc1)c1ccccc1 [Compound 106, 4-(3-(phenylsulfonamido)prop-1-ynyl)-N-(3,3,3-trifluoropropyl)-benzene sulfonamide]
ΔTm (EthR protein): 3.3 °C | EC50 ([1]; read-out: EC50): 1800 nM

Cc1csc(-c2ccc(S(=O)(=O)NCCC(F)(F)F)cc2)n1 [Compound 41, 4-(4-methylthiazol-2-yl)-N-(3,3,3-trifluoropropyl)benzene sulfonamide]
ΔTm (EthR protein): 6.8 °C | EC50 ([1]; read-out: EC50): 660 nM

Cc1nc(-c2ccc(S(=O)(=O)NCCC(C)(C)C)cc2)cs1 [Compound 23, N-(3,3-dimethylbutyl)-4-(2-methylthiazol-4-yl)benzene sulfonamide]
ΔTm (EthR protein): 2.3 °C | EC50 ([1]; read-out: EC50): > 20000 nM

O=S(=O)(NCCC(F)(F)F)c1ccc(-c2nc3ccccc3s2)cc1 [Compound 42, 4-(benzo[d]thiazol-2-yl)-N-(3,3,3-trifluoropropyl)benzene sulfonamide]
EC50 ([1]; read-out: EC50): 300 nM

COC(=O)Cc1nc(-c2ccc(S(=O)(=O)NCCC(F)(F)F)cc2)cs1 [Compound 33, 2-(4-(4-(N-(3,3,3-trifluoropropyl)sulfamoyl)phenyl)thiazol-2-yl)methyl acetate]
ΔTm (EthR protein): 9.5 °C | EC50 ([1]; read-out: EC50): 860 nM

CC(C)NC(=O)Cc1nc(-c2ccc(S(=O)(=O)NCCC(F)(F)F)cc2)cs1 [Compound 36, N-isopropyl-2-(4-(4-(N-(3,3,3-trifluoropropyl)sulfamoyl)phenyl)thiazol-2-yl)acetamide]
EC50 ([1]; read-out: EC50): 210 nM

CC(C)CCCc1nc(-c2ccc(C(=O)NCCC(F)(F)F)cc2)cs1 [Compound 47, 4-(2-(4-methylpentyl)thiazol-4-yl)-N-(3,3,3-trifluoropropyl)benzamide]
ΔTm (EthR protein): 13.0 °C | EC50 ([1]; read-out: EC50): 30 nM

Cc1nc(-c2ccc(C(=O)NCCC(F)(F)F)cc2)co1 [Compound 72, 4-(2-methyloxazol-4-yl)-N-(3,3,3-trifluoropropyl)benzamide]
EC50 ([1]; read-out: EC50): 180 nM

Cc1nnc(-c2ccc(C(=O)NCCC(F)(F)F)cc2)s1 [Compound 83, 4-(5-methyl-1,3,4-thiadiazol-2-yl)-N-(3,3,3-trifluoropropyl)benzamide]
EC50 ([1]; read-out: EC50): 1400 nM

CC(C)CCNS(=O)(=O)c1ccc(-c2csc(CC#N)n2)cc1 [Compound 17, 4-(2-(cyanomethyl)thiazol-4-yl)-N-isopentyl benzene sulfonamide]
ΔTm (EthR protein): 5.3 °C | EC50 ([1]; read-out: EC50): 7900 nM

[N-]=[N+]=Nc1ccc(C(=O)NCCC(F)(F)F)cc1 [Compound 92, 4-azido-N-(3,3,3-trifluoropropyl)benzamide]
ΔTm (EthR protein): 6.0 °C | EC50 ([1]; read-out: EC50): 1100 nM

Cc1nc(-c2ccc(S(=O)(=O)NCC(F)(F)C(F)(F)C(F)(F)F)cc2)cs1 [Compound 28, N-(2,2,3,3,4,4,4-heptafluorobutyl)-4-(2-methylthiazol-4-yl)benzene sulfonamide]
ΔTm (EthR protein): 7.3 °C | EC50 [1]: > 2500 nM
